# Read-outs that look alike come from different tables or passages of the source.
# Tests used:
# [1] = in vitro; assay type: in vitro ADME; settings: human, microsomes, HLM 0.5 mg/mL, 1 μM; for remaining at 0 h: 0 min, read-out: Percent Remaining (%) 0 min; for remaining at 0 h / remaining at 5 min / remaining at […] / remaining at 0.5 h / remaining at 0.75 h / remaining at 1 h: Mean; for remaining at 5 min: read-out: Percent Remaining (%) 5 min; for remaining at […]: 15 min, read-out: Percent Remaining (%) 15 min; for remaining at 0.5 h: 30 min, read-out: Percent Remaining (%) 30 min; for remaining at 0.75 h: 45 min, read-out: Percent Remaining (%) 45 min; for remaining at 1 h: 60 min, read-out: Percent Remaining (%) 60 min; for CLint scaled: scaling factor 1254.2
# [2] = in vitro; assay type: cell-based
# Procedure: Cells were seeded and grown in 96 well plates overnight. Then various concentrations of compounds in fresh medium were added and incubated for 72 h. Using MTT (Sigma) assay to determine the cell viability.
# [3] = in vivo; settings: male, Sprague-Dawley, rat
# [4] = SD rats
# [5] = test system: SARS-CoV-2 (BA.2); test: Plaque reduction assay in VeroE6-TMPRSS2; assay type: cell-based; settings: Severe acute respiratory syndrome coronavirus 2
# [6] = test system: SARS-CoV-2 (BA.5); test: microbe, parasite or virus in culture; assay type: cell-based; settings: Severe acute respiratory syndrome coronavirus 2, VeroE6-TMPRSS2, read-out: EC50 (plaque reduction)
# [7] = test system: MERS-CoV; test: microbe, parasite or virus in culture; assay type: cell-based; settings: Middle East respiratory syndrome-related coronavirus, VeroE6/TMPRSS2, read-out: EC50 (plaque reduction)
# [8] = test system: SARS-CoV-2 (B.1.351); test: Plaque reduction assay in VeroE6-TMPRSS2; assay type: cell-based; settings: Severe acute respiratory syndrome coronavirus 2
# [9] = test system: SARS-CoV-2 (B.1.1.7); test: Plaque reduction assay in VeroE6-TMPRSS2; assay type: cell-based; settings: Severe acute respiratory syndrome coronavirus 2
# [10] = test system: SARS-CoV-1; test: microbe, parasite or virus in culture; assay type: cell-based; settings: Severe acute respiratory syndrome coronavirus, VeroE6/TMPRSS2, read-out: EC50 (plaque reduction)
# [11] = in vitro; assay type: in vitro ADME, human; settings: human, plasma
# [12] = African green monkey, VeroE6, MTT, 72 h
Structure (SMILES),half-life [1] [h],remaining at 0 h [1] [%],remaining at 5 min [1] [%],remaining at […] [1] [%],remaining at 0.5 h [1] [%],remaining at 0.75 h [1] [%],remaining at 1 h [1] [%],CLint scaled [1] [mL/min/kg],"CC50 [2, 12] [µM]","CC50 ([2]; human, BEAS-2B, MTT, 72 h) [µM]","CC50 ([2]; human, HUVEC, MTT, 72 h) [µM]","AUC(0-inf) ([3]; iv, 1 mg/kg) [ng·h/mL]","AUC(0-t) ([3]; iv, 1 mg/kg) [ng·h/mL]","Cmax ([3]; iv, 1 mg/kg) [ng/mL]","Tmax ([3]; iv, 1 mg/kg) [h]","clearance ([3]; iv, 1 mg/kg) [mL/min/kg]","half-life ([3]; iv, 1 mg/kg) [h]","AUC(0-inf) ([3]; po, 10 mg/kg) [ng·h/mL]","AUC(0-t) ([3]; po, 10 mg/kg) [ng·h/mL]","Cmax ([3]; po, 10 mg/kg) [ng/mL]",other results
O=C(CC1CC(F)(F)C1)NCC(=O)N[C@H](Cc1ccccc1)C(=O)C(=O)NCc1nccs1 [3q],0.426,100,86,63.1,40.1,30.3,19.1,68.1,–,–,–,–,–,–,–,–,–,–,–,–,–
C[C@@H](NC(=O)C1CCC(F)(F)CC1)C(=O)N[C@H](Cc1ccccc1)C(=O)C(=O)NCc1nccs1 [3r],0.594,100,91.5,73.2,51,39.1,32.5,48.8,> 500,> 500,> 500,1020 ± 262,1010 ± 258,1110 ± 70,0.08,17 ± 3.8,2.41 ± 2.24,2840 ± 327,2570 ± 679,306 ± 32.1,"Tmax ([3]; po, 10 mg/kg): 2.67 ± 1.15 h; bioavailability ([3]; po, 10 mg/kg): 25.4 ± 6.71%; half-life ([3]; po, 10 mg/kg): 3.01 ± 0.91 h; MTRlast ([4]; i.v. (1 mg/kg)): 1.31 ± 0.54 h; Vzobs ([4]; i.v. (1 mg/kg)): 3.05 ± 2.08 L/kg; MTRlast ([4]; p.o. (10 mg/kg)): 4.89 ± 1.14 h"
C[C@@H](NC(=O)C1CCCC(F)(F)C1)C(=O)N[C@H](Cc1ccccc1)C(=O)C(=O)NCc1nccs1 (some centres unmarked) [3s],0.424,100,81.7,64.2,42,28.4,18.9,68.4,–,–,–,–,–,–,–,–,–,–,–,–,–
C[C@@H](NC(=O)C1CCC(F)(F)C1)C(=O)N[C@H](Cc1ccccc1)C(=O)C(=O)NCc1nccs1 (some centres unmarked) [3t],0.704,100,89.1,73.5,56.2,46.2,37,41.2,> 500,> 500,> 500,1330 ± 556,1290 ± 531,1320 ± 168,0.08,14.5 ± 7.25,1.9 ± 0.27,6900 ± 2620,6720 ± 2460,635 ± 161,"Tmax ([3]; po, 10 mg/kg): 1.67 ± 0.58 h; bioavailability ([3]; po, 10 mg/kg): 52 ± 19.1%; half-life ([3]; po, 10 mg/kg): 4.15 ± 1.48 h; MTRlast ([4]; i.v. (1 mg/kg)): 1.26 ± 0.42 h; Vzobs ([4]; i.v. (1 mg/kg)): 2.49 ± 1.61 L/kg; MTRlast ([4]; p.o. (10 mg/kg)): 5.90 ± 0.79 h"
C[C@@H](NC(=O)CC1CC(F)(F)C1)C(=O)N[C@H](Cc1ccccc1)C(=O)C(=O)NCc1nccs1 [3u],–,–,–,–,–,–,–,–,> 500,> 500,> 500,2250 ± 672,2200 ± 634,1570 ± 201,0.08,7.95 ± 2.8,5.47 ± 0.77,8700 ± 1120,8180 ± 795,735 ± 102,"Tmax ([3]; po, 10 mg/kg): 1.33 ± 0.58 h; bioavailability ([3]; po, 10 mg/kg): 37.2 ± 3.62%; half-life ([3]; po, 10 mg/kg): 5.84 ± 1.3 h; MTRlast ([4]; i.v. (1 mg/kg)): 3.19 ± 0.31 h; Vzobs ([4]; i.v. (1 mg/kg)): 3.65 ± 0.74 L/kg; MTRlast ([4]; p.o. (10 mg/kg)): 6.57 ± 0.38 h"
COC[C@@H](NC(=O)C1CCC(F)(F)CC1)C(=O)N[C@H](Cc1ccccc1)C(=O)C(=O)NCc1nccs1 [3v],0.65,100,88.3,73.2,54.5,42.3,34.7,44.6,132 ± 19.8,159 ± 4.34,129 ± 13.4,2830 ± 959,2570 ± 820,1700 ± 237,0.08,6.48 ± 2.63,9.49 ± 2.16,14000 ± 783,12700 ± 1270,1010 ± 115,"CC50 ([2]; human (BEAS-2B, African green monkey (VeroE6)), across BEAS-2B, VeroE6, and HUVEC cells, MTT): 129 to 159 µM; Tmax ([3]; po, 10 mg/kg): 4 h; bioavailability ([3]; po, 10 mg/kg): 49.2 ± 4.92%; half-life ([3]; po, 10 mg/kg): 6.64 ± 1.17 h; MTRlast ([4]; i.v. (1 mg/kg)): 3.55 ± 0.52 h; Vzobs ([4]; i.v. (1 mg/kg)): 5.25 ± 2.13 L/kg; MTRlast ([4]; p.o. (10 mg/kg)): 7.63 ± 0.57 h"
COC[C@@H](NC(=O)CC1CC(F)(F)C1)C(=O)N[C@H](Cc1ccccc1)C(=O)C(=O)NCc1nccs1 [3x],0.507,100,91.1,71.5,50.5,34.3,26.5,57.2,> 500,> 500,> 500,2390 ± 645,2360 ± 639,1350 ± 116,0.08,7.3 ± 1.9,5.09 ± 0.57,11200 ± 364,10800 ± 124,806 ± 75.4,"Tmax ([3]; po, 10 mg/kg): 2 h; bioavailability ([3]; po, 10 mg/kg): 45.8 ± 0.52%; half-life ([3]; po, 10 mg/kg): 4.67 ± 1.04 h; MTRlast ([4]; i.v. (1 mg/kg)): 3.18 ± 0.53 h; Vzobs ([4]; i.v. (1 mg/kg)): 3.28 ± 1.17 L/kg; MTRlast ([4]; p.o. (10 mg/kg)): 6.47 ± 0.50 h"
"O=C(c1ccc(F)cc1)C1CCN(CCn2c(=O)[nH]c3ccccc3c2=O)CC1 [Ketanserin, reference compound]",0.373,–,86.9,62.2,38.1,24.4,15.9,77.6,–,–,–,–,–,–,–,–,–,–,–,–,–
"CC(C)(C)[C@H](NC(=O)C(F)(F)F)C(=O)N1C[C@H]2[C@@H]([C@H]1C(=O)N[C@H](C#N)C[C@@H]1CCNC1=O)C2(C)C [Nirmatrelvir, reference compound]",0.407,100,86.5,60,38.7,26,18.6,71.2,–,–,–,–,–,–,–,–,–,–,–,–,EC50 [5]: 1.08 µM; EC50 [6]: 5.05 µM; EC50 [7]: 11.3 µM; EC50 [8]: 28.8 µM; EC50 [9]: 49.4 µM; EC50 [10]: 7.66 µM
"CC(=O)CC(c1ccccc1)c1c(O)c2ccccc2oc1=O (centres unmarked) [Warfarin, reference compound]",–,–,–,–,–,–,–,–,–,–,–,–,–,–,–,–,–,–,–,–,fraction unbound [11]: 0.009
